We go through one molecule from patent US20170128518A1, “METHODS AND MATERIALS FOR IDENTIFYING AND TREATING MAMMALS RESISTANT TO PROTEASOME INHIBITOR TREATMENTS” (Mayo Foundation for Medical Education and Research, priority 2014, published 2017).

The test system of assay [1] is BCWM.1 cells. The experiment in a line: Annexin-V apoptosis assay, BCWM.1. Type of assay: cell-based, human. As to the method:
(§1) FIG. 18 is a series of representative heat density plots showing Annexin-V staining in BCWM.1 and BCWM.1/BR±b-AP15 treatment, indicating about 46% cell death in BCWM.1 cells (top panels) and about 42% cell death in BCWM.1/BR cells (bottom panels).
(§2) Apoptosis was measured using the Annexin V binding assay kit from BD Biosciences according to the manufacturer's instructions. Briefly, at the end of the treatment, cells were washed with PBS and 1×10^6 cells were re-suspended in 100 μl of binding buffer. Fluorescein isothiocycanate (FITC)-labelled Annexin V (5 μl) and propidium iodide (10μ were added to each sample and incubated in the dark for 15 minutes at room temperature. The cells were subsequently analyzed by flow cytometry using BD Accuri, the C6 flow cytometer and its software. Data from 10,000 events per sample were collected and analyzed.

The subject of the next assay is BCWM.1/BR. As to the kind of experiment: MTS viability assay, BCWM.1/BR. Type of assay: cell-based, human. The conditions noted are these: 72-h MTS assay. As to the method:
FIGS. 4A-4D show the characterization of BR WM models, established by subjecting WM cancer cell lines (n=3) chronic drug exposure. […] FIG. 4C is a graph plotting relative fluorescence units in an assay to examine PSMB5 enzyme function by flow cytometry.
(§3) Twenty thousand cells/200 μl in quadruplicates were incubated with serially diluted b-AP15 (1-1000 nmol/l) in 96-well plates at 37° C. for 72 hours. MTS (3-(4,5-dimethylthiazol-2-yl)-5-(3-carboxymethoxyphenyl)-2-(4-sulfophenyl)-2H-tetrazolium) reagent (Molecular Probes, Eugene, Oreg.) was added at 40 μl/well and the plates were further incubated at 37° C. for 3 hours and the developed color was read at 490 nm using a BioTek synergy HT plate reader against blanks with no cells.
Background: Formazan colour is commonly taken as a measure of viable cells.

Assay [2] concerns the target T1, 20S proteasome b5 subunit (Homo sapiens, UniProt P28074).
T1 construct: Cells were lysed at 4×10^6 cells/ml in proteasomal activity assay buffer; endogenous in cells; host or cells: BCWM.1, MWCL-1, RPCI-WM1 and their BR subclones (lysates)
T1 sequence (P28074 60-263): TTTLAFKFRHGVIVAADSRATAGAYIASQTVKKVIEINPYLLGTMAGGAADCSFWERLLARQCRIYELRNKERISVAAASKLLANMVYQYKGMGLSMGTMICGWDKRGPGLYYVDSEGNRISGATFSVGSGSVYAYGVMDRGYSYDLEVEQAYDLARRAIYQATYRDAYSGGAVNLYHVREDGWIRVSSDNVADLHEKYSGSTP
As to the kind of experiment: Proteasomal activity assay, chymotrypsin-like (LLVY-AMC), WM cells. Type of assay: biochemical. The conditions noted are these: 10 nmol/l; WT and BR WM cells. The method, then:
FIGS. 10A and 10B are a series of graphs plotting the effect of b-AP15 treatment on 20S proteasome, b5-subunit (chymotrypsin-like) catalytic activity in WT and BR WM cells.
(§4) Cells were lysed at 4×10^6 cells/ml in proteasomal activity assay buffer [assay buffer; 25 mmol/1 HEPES buffer, pH7.5 containing 0.5 mmol/1 EDTA, 0.05% Nonidet P-40, 0.01% sodium dodecyl sulfate (SDS)] and immediately used in the assay. Enzyme reactions were performed in 96-well plates with 100 μl of final volume containing […] fluorogenic peptide substrates. The substrates used were LLVY-AMC for chymotrypsin like activity, LLE-AMC for caspase-like activity and LRR-AMC for trypsin-like activity. Reactions were incubated at 37° C. for 1 hour and fluorescence was measured at 360/460 using a BioTek synergy HT plate reader (BioTek, Winooski, Vt.).

Assay [3] has as its system BCWM.1 cells. As to the kind of experiment: Mitochondrial outer membrane permeability (TMRM), BCWM.1. Type of assay: cell-based, human. As to the method: FIG. 19 is a pair of histograms showing MOMP in representative WM models±b-AP15 treatment (BCWM.1 and BCWM.1/BR cells; one WT with its respective BR subclone). Black histogram represents control. Lines represent a shift in MOMP.
Cells were treated with different agents for 48 hours and assessed for MOMP using tetramethylrhodamine methyl ester [TMRM] (Life Technologies). TMRM was directly added to the cell cultures at 100 nmol/1 concentrations and incubated at 37° C. in the dark for 15 minutes. At the end of the incubation, cells were washed twice with cold PBS containing 2% FBS and analyzed. The cells were washed for fluorescence (FL2) and analyzed by BD Accuri, the C6 flow cytometer and its software. Data from at least 20,000 events per sample were collected and analyzed. TMRM-negative (%) cells were calculated to determine % MOMP.

Assay [4] concerns NF-κB reporter in HEK293 cells expressing MYD88 L265P. As to the kind of experiment: NF-κB luciferase reporter assay. As to conditions: 24 hours; 0.5 μmol/l. Type of assay: cell-based, human. As to the method:
HEK293 cells expressing MYD88 L265P were generated as described elsewhere (Ansell et al., Blood Cancer J, 4:e183, 2014). Cells were transiently transfected with 0.5 ng Renilla and 0.25 μg of a pNFκB-luciferase reporter plasmid/1.0×10^6 cells. b-AP15 was added to each well at the indicated doses; after 24 hours, luciferase activity was measured in cell extracts and normalized against Renilla with the Dual Luciferase Kit (Promega, Madison, Wis.).
(Reporter assays use an easily measured gene product as a stand-in for the process of interest.)

The next assay concerns BCWM.1/BR cells. As to the kind of experiment: Annexin-V apoptosis assay, BCWM.1/BR. Type of assay: cell-based, human. The method, then:
as §1, §2

Assay [5] has as its target T2, proteasome b1 subunit (caspase-like activity) (Homo sapiens, UniProt P28072).
T2 construct: Cells were lysed at 4×10^6 cells/ml in proteasomal activity assay buffer; endogenous in cells; host or cells: BCWM.1 and BCWM.1/BR (lysates)
The experiment in a line: Proteasomal activity assay, caspase-like (LLE-AMC), WM cells. Type of assay: biochemical. The conditions noted are these: 10 nM; BCWM.1 and BCWM.1/BR shown. The method, then: FIGS. 17A-17D are a series of graphs plotting the effects of bortezomib (10 nM), carfilzomib (10 nM) and b-AP15 (10 nM) on caspase-like and trypsin-like proteasomal activities, as assessed in three WT and three BR WM cell lines in vitro using the fluorogenic substrates LLE-AMC (caspase-like activity) and LRR-AMC (trypsin-like activity). Reactions were incubated at 37° C. for 1 hour and the fluorescence was measured at 360/460 and expressed as relative fluorescence units (RFU), using BioTek synergy HT plate reader. Data from two representative cell lines (BCWM.1 and its BR subclone) are shown.
as §4

The subject of the next assay is MWCL-1 cells. As to the kind of experiment: MTS viability assay, MWCL-1. Type of assay: cell-based, human. As to conditions: 72-h MTS assay. The method, then:
as §3

Entries after “also recorded” stand apart in the source; their conditions may differ.

T2 sequence (P28072 whole entry): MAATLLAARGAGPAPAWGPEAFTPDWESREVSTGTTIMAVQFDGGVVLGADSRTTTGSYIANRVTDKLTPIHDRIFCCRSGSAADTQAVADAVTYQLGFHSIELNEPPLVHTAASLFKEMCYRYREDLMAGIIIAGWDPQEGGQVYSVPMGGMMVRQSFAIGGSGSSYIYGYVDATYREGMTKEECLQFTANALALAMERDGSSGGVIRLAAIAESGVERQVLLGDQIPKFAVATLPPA

In the case of `C=CC(=O)N1C/C(=C\c2ccc([N+](=O)[O-])cc2)C(=O)/C(=C/c2ccc([N+](=O)[O-])cc2)C1` [b-AP15], the “cell death (Annexin-V staining)” value is “about 46%” in the assay with BCWM.1 cells [1] and “about 42%” in the assay with BCWM.1/BR cells. Also, the IC50 (usually the point on the concentration scale where inhibition reaches its midpoint) worked out at 16 nM with BCWM.1/BR and 7 nM in the assay on MWCL-1 cells. In addition, in assay [2], the “chymotrypsin-like activity (LLVY) of the b5 subunit” value was “did not alter chymotryptic activity; also recorded: no loss of the chymotrypsin-like activity”. Further, the “increase in MOMP” value in the assay with BCWM.1 cells [3] is 57%. Further, in assay [4], the “NF-κB luciferase reporter activity” value is reported as “significantly reduced; also recorded: significant reduction”. The caspase-like proteasomal activity entry in assay [5] was “no change in caspase-like activity”.
